Experimental data from patent US9822414B2, “In vitro method for predicting in vivo genotoxicity of chemical compounds” (priority 2011, dated 2017).
Values joined by “and” are separate entries in the source; they are usually repeats but may differ in a detail not shown here. Equal values may be shown once. Read-outs that look alike come from different tables or passages of the source.

Key:
[1] = system: conventional in vitro genotoxicity assays; settings: cited from earlier work
rodents = settings: cited from earlier work
SLC40A1 = assay: Gene expression of SLC40A1 in HepG2 cells exposed to compound (microarray, log2 treatment:control ratio); format: cell-based, human; settings: for Log2 treatment: control ratio SLC40A1: 24 h exposure, Ames negative compounds, one line per replicate of triplicate experiments
PNMA6A = assay: Gene expression of PNMA6A in HepG2 cells exposed to compound (microarray, log2 treatment:control ratio); format: cell-based, human; settings: for Log2 treatment: control ratio PNMA6A: 24 h exposure, Ames negative compounds, one line per replicate of triplicate experiments
C10orf65/HOGA1 = assay: Gene expression of C10orf65/HOGA1 in HepG2 cells exposed to compound (microarray, log2 treatment:control ratio); format: cell-based, human; settings: for Log2 treatment: control ratio C10orf65/HOGA1: 24 h exposure, Ames negative compounds, one line per replicate of triplicate experiments; for C10orf65/HOGA1: expression versus reference value, single measurement of three
Salmonella typhimurium = settings: cited from earlier work
[2] = HepG2 cells, expression versus reference value, single measurement of three
[3] = standard in vivo genotoxicity designation

| SMILES | In vitro GTX [1] | In vivo GTX (rodents; in vivo) | Standard (rodents; in vivo) | Average result over three measurements (HepG2 cell) | Prediction (class prediction results using the method of the invention) (HepG2 cell) | Log2 treatment: control ratio SLC40A1 (SLC40A1; HepG2 cells) | Log2 treatment: control ratio PNMA6A (PNMA6A; HepG2 cells) | Log2 treatment: control ratio C10orf65/HOGA1 (C10orf65/HOGA1) | At least ⅔ genes +? (HepG2 cell) | SLC40A1 (SLC40A1; [2]) | PNMA6A (PNMA6A; [2]) | C10orf65/HOGA1 (C10orf65/HOGA1) | also measured |
| --- | --- | --- | --- | --- | --- | --- | --- | --- | --- | --- | --- | --- | --- |
| C=CCc1ccc(O)c(OC)c1 [EuG] | + | − | NGTX | NGTX | NGTX+ | 0.161 and 0.712 and 0.293 | 0.39 and 0.124 and 0.031 | −0.156 and 0.3 and −0.066 |  |  |  |  | Ames (Salmonella typhimurium; Ames results based on NTP data): − |
| ClC1C(Cl)C(Cl)C(Cl)C(Cl)C1Cl (stereo not drawn) [HCH] |  |  | NGTX | NGTX | NGTX | 0.334 and 0.924 and 0.712 | −0.604 and −0.2 and 0.012 | −0.367 and −0.143 and −0.165 | NGTX | + (above the reference value) | − (below the reference value) | − (below the reference value) |  |
| CO[C@@]12[C@H](COC(N)=O)C3=C(C(=O)C(C)=C(N)C3=O)N1C[C@@H]1N[C@@H]12 [MMC] |  | + |  |  |  |  |  |  |  |  |  |  |  |
| O=[N+]([O-])c1ccccc1 [NBZ] | − | − | NGTX |  |  |  |  |  |  | − (below the reference value) |  |  |  |
| Oc1c(Cl)c(Cl)c(Cl)c(Cl)c1Cl [PCP] |  |  |  |  |  |  |  |  |  |  | − (below the reference value) | − (below the reference value) | Standard (rodents; [3]): NGTX |
| Oc1ccccc1 [Ph, Phenol] | + | + | GTX | GTX | GTX |  |  |  | GTX |  |  |  | SLC40A1 (SLC40A1): + (key: +: above the reference value; −: below the reference value); PNMA6A (PNMA6A): + (key: +: above the reference value; −: below the reference value); Ames (Salmonella typhimurium): − |
| CC(=O)[C@H]1CC[C@H]2[C@@H]3CCC4=CC(=O)CC[C@]4(C)[C@H]3CC[C@]12C [Prog] |  | − | NGTX |  |  |  |  |  |  | − (below the reference value) | − (below the reference value) |  |  |
| COC(=O)[C@H]1[C@H]2C[C@@H]3c4[nH]c5cc(OC)ccc5c4CCN3C[C@H]2C[C@@H](OC(=O)c2cc(OC)c(OC)c(OC)c2)[C@@H]1OC [Res] | − | − | NGTX | NGTX | NGTX | 0.398 and −0.212 and −0.057 | 0.09 and −0.624 and 0.288 | 0.047 and 6.45E−05 and −0.043 | NGTX |  |  | − (below the reference value) | Ames (Salmonella typhimurium; Ames results based on NTP data): − |
| CCNc1nc(Cl)nc(NCC)n1 [Sim] | − | − | NGTX | NGTX | NGTX | −0.601 and −0.1 and −0.245 | 0.246 and 0.186 and 0.202 | 0.22 and 0.14 and 0.155 | NGTX | − (below the reference value) | − (below the reference value) |  | Classification of NGTX compounds by the method of the invention (false positives) (HepG2 cell): misclassification; Ames (Salmonella typhimurium; Ames results based on NTP data): − |
| Cc1noc(NS(=O)(=O)c2ccc(N)cc2)c1C [Sulfi] |  | − | NGTX |  |  |  |  |  |  |  | − (below the reference value) | − (below the reference value) |  |
| O=C1O[C@H]([C@@H](O)CO)C(O)=C1O [VitC] |  |  |  | GTX | GTX |  |  |  | GTX |  | + (above the reference value) | + (above the reference value) | In vivo GTX (rodents; positive when at least one in vivo assay (MN, CA) positive, equivocal considered positive): +; Standard (rodents; [3]): GTX |
| CC1(C)S[C@@H]2[C@H](NC(=O)[C@H](N)c3ccccc3)C(=O)N2[C@H]1C(=O)O.O.O.O [ampC] |  |  |  |  |  |  |  |  |  | − (below the reference value) |  | − (below the reference value) | Standard (rodents; [3]): NGTX |
| Cl[C@H]1[C@H](Cl)[C@@H](Cl)[C@@H](Cl)[C@H](Cl)[C@H]1Cl [γ-HCH] | − | − |  |  |  |  |  |  |  |  |  |  | Ames (Salmonella typhimurium): − |
